According to patent publication US20260132129A1 (Genesis Therapeutics, Inc., priority 2022, published 2026):
pIC50: −log10 of the molar value. Structures can show the parent of a compound that is named as a salt.

Target: T1, PI3Kα H1047R (T47D cells) (Homo sapiens, UniProt P42336, H1047R)
T1 construct: endogenous in cells; host or cells: T47D cells
Experiment: PI3Kα cellular assay: pAKT HTRF in T47D cells after EGF stimulation
Assay type: cell-based
Conditions: for pIC50: T47D cells (PI3Kα H1047R), pAKT S473 HTRF, 1 hr compound, 20 ng/ml EGF 10 min
Outline: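 T47D cells (PIK3CA H1047R) serum-starved 16 h, then treated 1 h at 37 °C with compound (10,000 nM top, 3-fold steps to 0.5 nM). After 10 min stimulation with 20 ng/mL EGF, cells were lysed and pAKT measured by HTRF.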

T1 sequence (P42336 whole entry H1047R): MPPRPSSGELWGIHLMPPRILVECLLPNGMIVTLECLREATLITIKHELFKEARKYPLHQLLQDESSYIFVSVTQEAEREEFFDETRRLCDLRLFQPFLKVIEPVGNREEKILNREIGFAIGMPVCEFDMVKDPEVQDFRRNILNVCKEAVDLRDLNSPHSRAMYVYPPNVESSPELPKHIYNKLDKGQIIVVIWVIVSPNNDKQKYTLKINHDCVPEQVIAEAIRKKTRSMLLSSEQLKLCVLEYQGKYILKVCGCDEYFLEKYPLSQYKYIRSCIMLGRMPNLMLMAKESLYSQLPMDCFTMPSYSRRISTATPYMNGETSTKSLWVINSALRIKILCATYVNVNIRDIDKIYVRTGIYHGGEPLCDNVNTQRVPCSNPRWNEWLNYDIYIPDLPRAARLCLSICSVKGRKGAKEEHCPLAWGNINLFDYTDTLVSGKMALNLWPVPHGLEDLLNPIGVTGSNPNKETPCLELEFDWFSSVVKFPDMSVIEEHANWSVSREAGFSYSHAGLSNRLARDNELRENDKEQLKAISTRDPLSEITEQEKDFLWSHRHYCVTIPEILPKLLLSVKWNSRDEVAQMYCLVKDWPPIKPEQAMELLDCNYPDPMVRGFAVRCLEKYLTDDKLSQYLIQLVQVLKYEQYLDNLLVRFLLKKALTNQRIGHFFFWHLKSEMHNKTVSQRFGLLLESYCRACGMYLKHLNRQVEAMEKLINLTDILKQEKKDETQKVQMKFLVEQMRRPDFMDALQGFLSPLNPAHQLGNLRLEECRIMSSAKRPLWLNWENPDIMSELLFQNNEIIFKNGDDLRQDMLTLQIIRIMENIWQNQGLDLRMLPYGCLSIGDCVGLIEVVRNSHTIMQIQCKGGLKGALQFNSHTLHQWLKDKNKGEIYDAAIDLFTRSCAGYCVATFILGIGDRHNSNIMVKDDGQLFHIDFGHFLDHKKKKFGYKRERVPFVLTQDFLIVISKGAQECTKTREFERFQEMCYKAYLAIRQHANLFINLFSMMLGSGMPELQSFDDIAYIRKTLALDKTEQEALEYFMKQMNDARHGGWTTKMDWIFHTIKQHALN
T1 sequence (P27986 whole entry partner): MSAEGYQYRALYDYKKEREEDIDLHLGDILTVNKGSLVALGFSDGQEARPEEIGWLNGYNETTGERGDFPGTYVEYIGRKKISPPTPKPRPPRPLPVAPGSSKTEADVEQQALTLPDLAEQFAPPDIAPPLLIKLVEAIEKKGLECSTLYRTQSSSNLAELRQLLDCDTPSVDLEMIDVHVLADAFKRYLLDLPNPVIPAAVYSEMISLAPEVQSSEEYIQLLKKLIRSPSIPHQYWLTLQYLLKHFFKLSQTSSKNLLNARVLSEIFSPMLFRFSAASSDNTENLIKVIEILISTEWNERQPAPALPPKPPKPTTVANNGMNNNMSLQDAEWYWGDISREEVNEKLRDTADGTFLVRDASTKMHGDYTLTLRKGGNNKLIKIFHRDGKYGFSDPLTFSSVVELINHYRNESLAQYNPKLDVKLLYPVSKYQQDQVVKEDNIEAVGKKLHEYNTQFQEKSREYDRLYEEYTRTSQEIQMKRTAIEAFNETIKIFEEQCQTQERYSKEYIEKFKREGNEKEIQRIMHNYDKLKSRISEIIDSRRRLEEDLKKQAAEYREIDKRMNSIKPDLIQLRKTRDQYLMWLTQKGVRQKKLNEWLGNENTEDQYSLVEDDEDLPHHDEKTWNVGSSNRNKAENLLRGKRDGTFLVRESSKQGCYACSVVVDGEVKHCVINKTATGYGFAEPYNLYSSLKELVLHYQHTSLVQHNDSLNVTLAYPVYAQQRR

Cc1cc([C@@H](C)Nc2ccccc2C(=O)O)c2nc(N3CCN(C)CC3)cc(=O)n2c1 [Compound 394]
pIC50: < 5.70 | T47D pAKT S473 HTRF IC50 (H1047R): T47D (H1047R) selectivity over SKBR3 (WT): C (C denotes ≤5-fold)

Cc1cc([C@H](C)Nc2ccccc2C(=O)O)c2nc(N3Cc4ccccc4C3)cc(=O)n2c1 [Compound 403]
pIC50: < 5.70 | T47D pAKT S473 HTRF IC50 (H1047R): T47D (H1047R) selectivity over SKBR3 (WT): C (C denotes ≤5-fold)

Cc1cc(C(C)Nc2ccccc2C(=O)O)c2nc(-c3cccnc3)cc(=O)n2c1 (centres unmarked) [Compound 416, 2-((1-(7-methyl-4-oxo-2-(pyridin-3-yl)-4H-pyrido[1,2-a]pyrimidin-9-yl)ethyl)amino)benzoic acid trifluoroacetate]
pIC50: 6.30 to 7.00 | T47D pAKT S473 HTRF IC50 (H1047R): T47D (H1047R) selectivity over SKBR3 (WT): A (A denotes >20-fold)

Cc1cc([C@H](C)Nc2ccccc2C(=O)O)c2nc(-c3ccccc3)cc(=O)n2c1 [Compound 423]
T47D pAKT S473 HTRF IC50 (H1047R): T47D (H1047R) selectivity over SKBR3 (WT): C (C denotes ≤5-fold)

Cc1cc([C@H](C)Nc2ccccc2C(=O)O)c2nc(N3CCC(C)(C)CC3)cc(=O)n2c1 [Compound 432]
T47D pAKT S473 HTRF IC50 (H1047R): T47D (H1047R) selectivity over SKBR3 (WT): C (C denotes ≤5-fold)

Cc1cc(C(C)Nc2ccccc2C(=O)O)c2nc(N3CCC(NS(C)(=O)=O)CC3)cc(=O)n2c1 (centres unmarked) [Compound 433]
T47D pAKT S473 HTRF IC50 (H1047R): T47D (H1047R) selectivity over SKBR3 (WT): C (C denotes ≤5-fold)

Cc1cc(C(C)Nc2ccccc2C(=O)O)c2nc(N3CCC(NS(C)(=O)=O)CC3)cc(=O)n2c1 (centres unmarked) [Compound 434]
T47D pAKT S473 HTRF IC50 (H1047R): T47D (H1047R) selectivity over SKBR3 (WT): C (C denotes ≤5-fold)

Cc1cc(C(C)Nc2ccccc2C(N)=O)c2nc(-c3ccncc3)cc(=O)n2c1 (centres unmarked) [Compound 438]
pIC50: < 5.70 | T47D pAKT S473 HTRF IC50 (H1047R): T47D (H1047R) selectivity over SKBR3 (WT): C (C denotes ≤5-fold)

Cc1cc([C@@H](C)Nc2ccccc2C(=O)O)c2nc(N3CC[Si](C)(C)CC3)cc(=O)n2c1 [Compound 446]
pIC50: < 5.70 | T47D pAKT S473 HTRF IC50 (H1047R): T47D (H1047R) selectivity over SKBR3 (WT): C (C denotes ≤5-fold)

Cc1cc(C(C)Nc2ccccc2C(=O)O)c2nc(-c3ccc4c(c3)c(N(C)C)nn4C)cc(=O)n2c1 (centres unmarked) [Compound 457]
pIC50: > 7.00 | T47D pAKT S473 HTRF IC50 (H1047R): T47D (H1047R) selectivity over SKBR3 (WT): A (A denotes >20-fold)

Cc1cc(C(C)Nc2ccccc2C(=O)O)c2nc(-c3ccnnc3)cc(=O)n2c1 (centres unmarked) [Compound 460]
pIC50: 5.70 to 6.30 | T47D pAKT S473 HTRF IC50 (H1047R): T47D (H1047R) selectivity over SKBR3 (WT): B (B denotes 20-fold≥value>5-fold)

Cc1cc([C@@H](C)Nc2ccccc2C(=O)O)c2nc(-c3cc[nH]c(=O)c3)cc(=O)n2c1 [Compound 461]
pIC50: < 5.70 | T47D pAKT S473 HTRF IC50 (H1047R): T47D (H1047R) selectivity over SKBR3 (WT): C (C denotes ≤5-fold)

Cc1cc([C@H](C)Nc2ccccc2C(=O)O)c2nc(-c3cc[nH]c(=O)c3)cc(=O)n2c1 [Compound 462]
pIC50: < 5.70 | T47D pAKT S473 HTRF IC50 (H1047R): T47D (H1047R) selectivity over SKBR3 (WT): C (C denotes ≤5-fold)

Cc1cc(C(C)Nc2ccccc2C(=O)O)c2nc(-c3ccc4c(c3)NC(CO)N4)cc(=O)n2c1 (centres unmarked) [Compound 466]
pIC50: < 5.70 | T47D pAKT S473 HTRF IC50 (H1047R): T47D (H1047R) selectivity over SKBR3 (WT): C (C denotes ≤5-fold)

Cc1cc(C(C)Nc2ccccc2C(=O)O)c2nc(N3CCN(c4ccncc4)CC3)cc(=O)n2c1 (centres unmarked) [Compound 467]
pIC50: < 5.70 | T47D pAKT S473 HTRF IC50 (H1047R): T47D (H1047R) selectivity over SKBR3 (WT): C (C denotes ≤5-fold)

Cc1cc(C(C)Nc2ccccc2C(=O)O)c2nc(N3CCC4(CC3)COC4)cc(=O)n2c1 (centres unmarked) [Compound 471]
pIC50: 5.70 to 6.30 | T47D pAKT S473 HTRF IC50 (H1047R): T47D (H1047R) selectivity over SKBR3 (WT): B (B denotes 20-fold≥value>5-fold)

Cc1cc(C(C)Nc2ccccc2C(=O)O)c2nc(N3CCC(C)(O)CC3)cc(=O)n2c1 (centres unmarked) [Compound 473]
pIC50: < 5.70 | T47D pAKT S473 HTRF IC50 (H1047R): T47D (H1047R) selectivity over SKBR3 (WT): C (C denotes ≤5-fold)

Cc1cc([C@H](C)Nc2ccccc2C(=O)O)c2nc(-c3ccc4c(c3)CC(=O)N4)cc(=O)n2c1 [Compound 478]
pIC50: 6.30 to 7.00 | T47D pAKT S473 HTRF IC50 (H1047R): T47D (H1047R) selectivity over SKBR3 (WT): A (A denotes >20-fold)

Cc1cc([C@@H](C)Nc2ccccc2C(=O)O)c2cc(-c3ccncn3)cc(=O)n2c1 [Compound 481]
pIC50: < 5.70 | T47D pAKT S473 HTRF IC50 (H1047R): T47D (H1047R) selectivity over SKBR3 (WT): C (C denotes ≤5-fold)

Cc1cc([C@H](C)Nc2ccccc2C(=O)O)c2cc(-c3ccncn3)cc(=O)n2c1 [Compound 482]
pIC50: 5.70 to 6.30 | T47D pAKT S473 HTRF IC50 (H1047R): T47D (H1047R) selectivity over SKBR3 (WT): B (B denotes 20-fold≥value>5-fold)

Cc1cc([C@@H](C)Nc2ccccc2C(=O)O)c2cc(-c3ccnnc3)cc(=O)n2c1 [Compound 483]
pIC50: 5.70 to 6.30 | T47D pAKT S473 HTRF IC50 (H1047R): T47D (H1047R) selectivity over SKBR3 (WT): B (B denotes 20-fold≥value>5-fold)
